Measured values taken from paper PMC4926125, “Evaluation of the Toxicity and Toxicokinetics of Cereulide from an Emetic Bacillus cereus Strain of Milk Origin” (Toxins, 2016).
Where two headings read alike, the source gives them in different places.

Columns and labels:
[1] = test system: aspartate aminotransferase (AST) in plasma; experiment: Liver damage in rabbits evaluated by plasma AST concentration (indirect EIA); type: in vivo, New Zealand White rabbits; conditions: mean ± SD, n = 8, control range 15.0 to 30.0 ng/mL
Method: Liver damage in rabbits triggered by cereulide was evaluated by the concentration of aspartate aminotransferase (AST) in plasma. […] Liver function recovered, with the concentration of AST returning to the normal level 32 h after administration. In addition, the concentrations of AST in female rabbits were higher than those in males (Figure 3c), especially at the time point of 0.5 h (P = 0.0345).
This animal study was approved by the Institutional Animal Care and Use Committee at the China Agricultural University (SYXK (2012-0037), 28 December 2012), and all the operations were conducted according to the biosafety procedures. Eight adult New Zealand White rabbits (four female and four male) with weights of 2.0 ± 0.3 kg were used in this study. A single intravenous dose of 5 μg cereulide dissolved in 0.9% saline-methanol (10:90, v/v; the amount of methanol injected to rabbit was about 1.8 g/kg body weight) was administrated. Two other rabbits (one female and one male) were treated by 0.9% saline-methanol (10:90, v/v) as control. […]
Plasma samples at time points of 0.5, 6, 12, 24 and 32 h were evaluated concentrations of AST by indirect EIA according to the instruction (Beyotime Biotechnology, Beijing, China). […] Subsequently, the substrate was added with the absorbance at 450 nm.

[2] = Toxicokinetics of cereulide in rabbits after a single intravenous injection (plasma, UPLC-MS/MS); type: in vivo, New Zealand White rabbits; conditions: for MRT / Tmax: rabbit; for MRT: read-out: MRTlast, mean retention time until the last time point; for Tmax: read-out: Tmax, time to peak concentration
Method: A total number of eight rabbits (half female and half male) were used to evaluate the toxicokinetics of cereulide after a single administration of 5 μg cereulide. All plasma samples at different time points were collected, and the concentrations of cereulide were quantified by UPLC-MS/MS assay. The dynamic curve of cereulide in the plasma of rabbits is shown in Figure 3a, and toxicokinetic parameters were calculated using a non-compartmental model as shown in Table 1. […] The concentration of cereulide dropped down until 1 h and rose thereafter. Following a short stationary phase from 4 h to 8 h, the concentration of cereulide decreased gradually. No cereulide could be detected 32 h later. Additionally, no cereulide was detected in the rabbits treated by 0.9% saline-methanol (10:90, v/v) based on our established UPLC-MS/MS method.
This animal study was approved by the Institutional Animal Care and Use Committee at the China Agricultural University (SYXK (2012-0037), 28 December 2012), and all the operations were conducted according to the biosafety procedures. Eight adult New Zealand White rabbits (four female and four male) with weights of 2.0 ± 0.3 kg were used in this study. A single intravenous dose of 5 μg cereulide dissolved in 0.9% saline-methanol (10:90, v/v; the amount of methanol injected to rabbit was about 1.8 g/kg body weight) was administrated. Two other rabbits (one female and one male) were treated by 0.9% saline-methanol (10:90, v/v) as control. Blood samples were collected after injection at different time points 0, 0.2, 0.5, 1, 2, 3, 4, 5, 6, 8, 10, 12, 16, 20, 24, 28, 32 h. All samples were centrifuged at 4 °C, 2000 g for 10 min. Plasma from each sample was collected and stored at −80 °C.
The plasma samples were thawed to room temperature before analysis. Then 200 μL of each sample was spiked with 10 ng/mL valinomycin (Sigma-Aldrich, St. Louis, MO, USA) as internal standards in a 1.5 mL tube (Axygen, Union City, CA, USA). The extraction steps were as below. First 1 mL acetonitrile (Fisher Scientific, Waltham, PA, USA) was added to each sample and vortexed for 3 min. After centrifugation at 13,000 g for 10 min, the supernatants were transferred into new tubes. The extraction steps were repeated once and the supernatants were combined. The supernatants were evaporated under a flow of nitrogen gas at 50 °C. The dry samples were reconstituted with 500 μL methanol and water with the ratio of 9:1 (v/v), vortexed for 3 min and filtered through 0.22 μm filter membrane (PALL, Port Washington, NY, USA) before UPLC-MS/MS analysis.
The presence of cereulide was confirmed in all extracts and quantified by UPLC-MS/MS as described before. UPLC-MS/MS (Waters, Milford, MA, USA) equipped with a RP C18 column (50 mm × 2.1 mm, 1.7 μm, Acquity UPLC, Milford, MA, USA) was used. A gradient program was applied with the mobile phase consisting of solvent A (0.1% formic acid (Dikma, Lake Forest, CA, USA) in water) and solvent B (0.1% formic acid in acetonitrile) as follows: 98%–10% A (0–1 min), 10%–0% A (1–3 min), 0%–98% A (3–5 min). The flow rate was set at 0.3 mL/min with the injection volume of 10 μL. A positive electrospray ionization (ESI^+) mode was chosen to analyze the transitions of m/z 1170.9 → 1125.9 for cereulide and m/z 1128.8 → 1084.3 for valinomycin, by multiple reaction monitoring (MRM) method. The cone voltages for cereulide and valinomycin were 10 V and 60 V, and collision energy were 20 eV and 37 eV, respectively. All data were acquired and processed by software Masslynx 4.1 (Waters, Milford, MA, USA, 2005). The toxicokinetic parameters of cereulide were analyzed by the commercial pharmacokinetic program Phoenix WinNonlin 5.2.1 (Certara, Princeton, NJ, USA).

[3] = still active after heat treatment in food processing and passing through the intestinal tract; cited from earlier work
Text: B. cereus can be found in most common food matrices such as rice, pasta and dairy products, and it represents more than 68.0% of foodborne outbreaks in all food types. There is an increasing occurrence of B. cereus foodborne outbreaks. For example, B. cereus was responsible for 13.4% of bacterial foodborne outbreaks, ranking as the second among the most frequent bacterial causes of foodborne disease in Chinese inland provinces. In fact, the number of B. cereus contaminations is highly underestimated, because foodborne B. cereus disease is mild and self-limiting and is consequently ...

[4] = both sexes, New Zealand White, plasma, iv, 5 ug, single i.v. 5 μg cereulide/rabbit, plasma, UPLC-MS/MS, non-compartmental, n = 8, mean ± SD
[5] = both sexes, New Zealand White, plasma, iv, 5 ug, single i.v. 5 μg cereulide/rabbit, plasma, UPLC-MS/MS, non-compartmental, n = 8, median
[6] = single i.v. 5 μg cereulide/rabbit, plasma, UPLC-MS/MS (LOQ 1.5 ng/mL)
[7] = single i.v. 5 μg cereulide/rabbit, plasma, UPLC-MS/MS, non-compartmental, n = 8, median
[8] = single i.v. 5 μg cereulide/rabbit, plasma, UPLC-MS/MS, non-compartmental, n = 8, range

CC(C)C[C@H]1OC(=O)[C@H](C(C)C)NC(=O)[C@H](C(C)C)OC(=O)[C@@H](C)NC(=O)[C@@H](CC(C)C)OC(=O)[C@H](C(C)C)NC(=O)[C@H](C(C)C)OC(=O)[C@@H](C)NC(=O)[C@@H](CC(C)C)OC(=O)[C@H](C(C)C)NC(=O)[C@H](C(C)C)OC(=O)[C@@H](C)NC1=O [cereulide]
AST concentration in plasma ([1]; 0.5 h after single i.v. 5 μg cereulide): 99.1 ± 32.2 ng/mL
AST concentration in plasma ([1]; 12 h after single i.v. 5 μg cereulide): 97.3 ± 55.3 ng/mL
AUC(0-t) ([2]; both sexes, New Zealand White, iv, 5 ug, single i.v. 5 μg cereulide/rabbit, plasma, UPLC-MS/MS, non-compartmental, n = 8, mean ± SD, read-out: AUC, area under the curve for the plasma concentration until the last time point): 321 ± 240 ng·h/mL
AUC(0-inf) ([2]; both sexes, New Zealand White, iv, 5 ug, single i.v. 5 μg cereulide/rabbit, plasma, UPLC-MS/MS, non-compartmental, n = 8, mean ± SD, read-out: AUC∞, area under the curve until infinity): 390 ± 258 ng·h/mL
clearance ([2]; both sexes, New Zealand White, iv, 5 ug, single i.v. 5 μg cereulide/rabbit, plasma, UPLC-MS/MS, non-compartmental, n = 8, mean ± SD, read-out: Cl, clearance (converted)): 0.318 mL/min
Cmax ([2]; both sexes, New Zealand White, iv, 5 ug, single i.v. 5 μg cereulide/rabbit, plasma, UPLC-MS/MS, non-compartmental, n = 8, mean ± SD, read-out: Cmax, maximum concentration after intravenous administration): 40.8 ± 21.6 ng/mL
half-life ([2]; both sexes, New Zealand White, iv, 5 ug, single i.v. 5 μg cereulide/rabbit, plasma, UPLC-MS/MS, non-compartmental, n = 8, mean ± SD, read-out: HL_Lambda_z, elimination half-life (converted)): 10.8 ± 9.1 h
Vd ([2]; both sexes, New Zealand White, iv, 5 ug, single i.v. 5 μg cereulide/rabbit, plasma, UPLC-MS/MS, non-compartmental, n = 8, mean ± SD, read-out: Vd, volume of distribution): 0.32 ± 0.4 L
MRT [2, 4]: 9.6 ± 2.9 h
Tmax [2, 4]: 2.6 ± 3.4 h
MRT [2, 5]: 10.6 h
Tmax [2, 5]: 0.2 h
AUC, area under the curve for the plasma concentration until the last time point ([2]; single i.v. 5 μg cereulide/rabbit (ear vein), plasma 0-32 h, UPLC-MS/MS, non-compartmental model (WinNonlin), n = 8, median): 309.3 ng·h/mL
time after which no cereulide could be detected in plasma [2, 6]: 32 h
time at which cereulide was detected in plasma after injection [2, 6]: ≤ 0.2 h
Lambda_z, elimination rate constant ([2]; single i.v. 5 μg cereulide/rabbit, plasma, UPLC-MS/MS, non-compartmental, n = 8, mean ± SD): 0.1 ± 0.1 h⁻¹
AUC∞, area under the curve until infinity [2, 7]: 330.5 ng·h/mL
Cl, clearance [2, 7]: 15.5 mL/h
Cmax, maximum concentration after intravenous administration [2, 7]: 33.8 ng/mL
HL_Lambda_z, elimination half-life [2, 7]: 6.9 h
Lambda_z, elimination rate constant [2, 7]: 0.1 h⁻¹
Vd, volume of distribution [2, 7]: 208.1 mL
AUC, area under the curve for the plasma concentration until the last time point [2, 8]: 81.2 to 851.1 ng·h/mL
AUC∞, area under the curve until infinity [2, 8]: 126.0 to 853.9 ng·h/mL
Cl, clearance [2, 8]: 5.9 to 39.7 mL/h
Cmax, maximum concentration after intravenous administration [2, 8]: 13.3 to 78.1 ng/mL
HL_Lambda_z, elimination half-life [2, 8]: 1.9 to 24.5 h
Lambda_z, elimination rate constant [2, 8]: 0.03 to 0.4 h⁻¹
MRTlast, mean retention time until the last time point [2, 8]: 4.5 to 13.4 h
Tmax, time to peak concentration [2, 8]: 0.2 to 8.0 h
Vd, volume of distribution [2, 8]: 16.3 to 1254.5 mL
stability to heat and proteolysis [3]: heat-stable, proteolytically resistant
